{
  "source": "patent US20240261297A1",
  "about": "“ANTI-CDK INHIBITORS FOR CANCER TREATMENT” (St. John's Cancer Institute, priority 2021, published 2024)",
  "key": {"CDK1/Cyclin B1": {"molecular_target": "T1, CDK1/Cyclin B1 (Homo sapiens, UniProt P06493)", "T1 construct": "expressed in transfected cells; host or cells: HEK293", "T1 sequence (P06493 whole entry)": "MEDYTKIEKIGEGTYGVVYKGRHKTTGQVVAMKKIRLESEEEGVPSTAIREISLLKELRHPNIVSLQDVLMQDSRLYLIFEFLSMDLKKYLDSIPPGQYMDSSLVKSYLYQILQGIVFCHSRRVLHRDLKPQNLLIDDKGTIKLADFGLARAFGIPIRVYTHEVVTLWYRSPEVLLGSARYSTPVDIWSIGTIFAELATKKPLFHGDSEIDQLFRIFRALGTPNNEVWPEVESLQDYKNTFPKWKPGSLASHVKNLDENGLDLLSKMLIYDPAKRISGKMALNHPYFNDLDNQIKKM", "T1 sequence (P14635 whole entry partner)": "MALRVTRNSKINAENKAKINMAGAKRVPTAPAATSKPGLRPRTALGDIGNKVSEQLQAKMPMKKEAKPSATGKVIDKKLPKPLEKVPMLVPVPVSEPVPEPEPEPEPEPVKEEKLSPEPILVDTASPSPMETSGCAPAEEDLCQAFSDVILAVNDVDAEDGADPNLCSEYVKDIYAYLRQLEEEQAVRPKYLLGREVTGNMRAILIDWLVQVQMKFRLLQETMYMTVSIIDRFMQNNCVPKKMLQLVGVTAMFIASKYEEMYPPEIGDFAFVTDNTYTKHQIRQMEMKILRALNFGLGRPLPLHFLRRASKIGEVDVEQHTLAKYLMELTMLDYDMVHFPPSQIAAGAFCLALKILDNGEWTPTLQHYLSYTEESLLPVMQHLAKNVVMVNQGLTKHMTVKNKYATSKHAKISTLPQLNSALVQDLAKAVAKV", "test": "NanoBRET target engagement intracellular kinase assay in HEK293 cells", "assay_type": "cell-based", "conditions": "transfected HEK293 cells; 10-dose, 3-fold from 10 μM, duplicate", "description": "(§1) Compound 1-3 efficacy was assessed in several in vitro assays. A nanoBrET assay was used to measure intracellular kinase activity of I-3 with CDK2, CDK1, CDK7 and CDK9. Briefly, HEK293 cells were transfected with CDK2, CDK1, CDK7 and CDK9. The transfected cells were treated in duplicate with test compound I-3 (starting at 10 μM, 10-dose with 3-fold dilution) and target engagement was measured by NanoBRET assay (FIG. 2A and Table 4). Cellular thermal shift assay (CETSA) was also performed to evaluate drug target interaction in the cells. The CETSA method is built upon two concepts: cellular thermal shift and isothermal dose-response. The cellular thermal shift assay is based on the established fact that proteins that are complexed to a ligand become more resistant to heat induced unfolding. Isothermal dose response is used to determine a compound's potency in binding the target by measuring the thermal stability of the target treated with various concentrations of compound at a fixed temperature. Briefly, cell lysate was treated with I-3 (starting at 300 nM, 10-dose with 3-fold dilution) and incubated for 1 hour and cell lysates were then subjected to predetermined thermal aggregation temperature (58° C.) for another 20 min. Western blot was performed to determine the levels of target protein bound to I-3 (FIG. 2B)."}, "CDK9/cyclin T1": {"molecular_target": "CDK9/cyclin T1 (Homo sapiens, UniProt P50750)", "sequence (P50750 whole entry)": "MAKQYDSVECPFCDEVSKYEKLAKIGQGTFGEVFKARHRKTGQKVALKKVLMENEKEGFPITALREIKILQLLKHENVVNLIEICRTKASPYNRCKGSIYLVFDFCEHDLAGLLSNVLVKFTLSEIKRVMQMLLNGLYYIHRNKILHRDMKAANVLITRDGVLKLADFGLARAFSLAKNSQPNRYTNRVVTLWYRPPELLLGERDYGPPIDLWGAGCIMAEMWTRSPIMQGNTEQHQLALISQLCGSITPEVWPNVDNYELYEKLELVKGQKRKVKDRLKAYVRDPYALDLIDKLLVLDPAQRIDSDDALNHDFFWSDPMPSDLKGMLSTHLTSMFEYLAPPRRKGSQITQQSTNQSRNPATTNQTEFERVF", "sequence (O60563 whole entry partner)": "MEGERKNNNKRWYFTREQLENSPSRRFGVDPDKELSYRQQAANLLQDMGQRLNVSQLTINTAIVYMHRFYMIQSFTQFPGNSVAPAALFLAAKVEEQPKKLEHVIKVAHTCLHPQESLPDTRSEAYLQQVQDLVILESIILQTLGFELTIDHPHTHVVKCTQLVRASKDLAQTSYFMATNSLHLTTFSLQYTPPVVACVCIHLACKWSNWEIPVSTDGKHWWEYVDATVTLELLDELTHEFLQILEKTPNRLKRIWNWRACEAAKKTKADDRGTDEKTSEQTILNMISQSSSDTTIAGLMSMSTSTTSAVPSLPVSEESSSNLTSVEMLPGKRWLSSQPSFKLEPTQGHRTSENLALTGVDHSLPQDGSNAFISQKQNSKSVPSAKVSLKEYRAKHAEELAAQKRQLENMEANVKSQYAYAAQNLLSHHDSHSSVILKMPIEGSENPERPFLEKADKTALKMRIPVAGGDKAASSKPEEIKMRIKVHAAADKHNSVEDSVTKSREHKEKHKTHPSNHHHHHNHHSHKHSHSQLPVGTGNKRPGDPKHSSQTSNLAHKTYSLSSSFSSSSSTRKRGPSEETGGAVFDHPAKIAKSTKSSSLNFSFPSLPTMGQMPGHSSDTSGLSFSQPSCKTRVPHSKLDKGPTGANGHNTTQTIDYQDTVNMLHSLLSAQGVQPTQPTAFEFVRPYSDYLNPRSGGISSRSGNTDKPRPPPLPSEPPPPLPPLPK", "test": "NanoBRET target engagement intracellular kinase assay in HEK293 cells", "assay_type": "cell-based", "conditions": "transfected HEK293 cells; 10-dose, 3-fold from 10 μM, duplicate", "description": "as §1"}},
  "note": "pIC50: −log10 of the molar value.",
  "data": [
    {"smiles": "Nc1nccc(-c2c[nH]c3nccc(Oc4cccc(F)c4)c23)n1", "note": "[I-3, 4-(4-(3-fluorophenoxy)-1H-pyrrolo[2,3-b]pyridin-3-yl)pyrimidin-2-amine]", "values": [
      {"measurement": "pIC50", "setting": "CDK1/Cyclin B1", "result": 5.97},
      {"measurement": "pIC50", "setting": "CDK9/cyclin T1", "result": 6.15}
    ]}
  ]
}
